In US4515793A, “Phenylpiperazines which are useful in the treatment of schistosomiasis” (Edna McConnell Clark Foundation, priority 1983, dated 1985):
Values joined by “and” are separate entries in the source; they are usually repeats but may differ in a detail not shown here. Equal entries are not always repeated.

How the values were obtained:
[1] = test system: Salmonella Typhimurium TA98; experiment: bacterial mutagenicity, strain TA98; assay type: cell-based; design: key to Mutagenicity TA98: +: Positive Response; -: Negative Response; w+: Weak Positive Response
Protocol: (§1) The tests were carried out as follows:
(§2) Four phenylpiperazine derivatives were selected and specially purified samples were prepared for testing as bacterial mutagens. The tests were conducted with five strains (TA98, TA100, TA1535, TA1537, and TA1538) of Salmonella Typhimurium. The compounds were the base of cpd. A (Table 6a), cpd. 28 (Table 2), cpd. 49 (Table 3), and cpd. 8 (Table 1). Hycanthone was used as a positive control drug. In the initial test, cpd. A base was nonmutagenic, confirming previous work using strains TA98 and TA100 with cpd. A. Cpd. 28 and cpd. […] In this initial test, cpd. […] Therefore, it was concluded that cpd. 49 is nonmutagenic in the Ames/Salmonella assay.

[2] = test system: Salmonella Typhimurium TA1535; experiment: bacterial mutagenicity, strain TA1535; assay type: cell-based; design: key: +: Positive Response; -: Negative Response; w+: Weak Positive Response; conditions: without metabolic activation
Protocol: as §1, §2

[3] = test system: S. mansoni; experiment: antischistosomal activity in mice (live worm burden, single oral dose); assay type: in vivo, S. mansoni (host: CD1 white female mice); conditions: Schistosoma mansoni, single oral dose, read-out: % Reduction Live Worm Burden; for inhibition in vivo at 40 mg/kg / inhibition in vivo at 20 mg/kg / inhibition in vivo at 125 mg/kg: mice; for inhibition in vivo at 50 mg/kg: mice (footnote, 40 mg/kg); for inhibition in vivo at 156 mg/kg: mice (footnote, 125 mg/kg column)
Protocol: Tests were conducted to determine the antischistosomal activity in mice and monkeys. The results of the mice tests are reported in Tables 1 to 4 along with the chemical identifications of the compounds synthesized and tested.
The mice tests were conducted as follows:
A. Preinfection Procedures: Purina Laboratory chow (Ralston-Purina) and water were given ad libitum. All mice were housed in hanging stainless steel cages, without bedding, five per cage. They were kept in a ward with an ambient temperature of 75° F. and a relative humidity of 50-55%. Therapeutic treatment was given on Day 40 post-infection.
B. Experimental Procedures: CD1 white female mice were exposed by the tail immersion method for 30 minutes to 80 individually counted S. mansoni cercariae (WRAIR laboratory strain). The cercariae were obtained from pools of no less than 25 Biophalaria glabrata snails. Each experiment consisted of 118 mice divided into infected/water treated and infected/vehicle-treated controls, and infected/drug-treated groups (two dose levels) for six compounds. Groups of 12 mice each were treated with a compound synthesized and provided by the Warner-Lambert Company, Ann Arbor, Mich. at two dose levels. At the same time, five mice were sacrificed to establish worm burdens as infection controls. Three weeks after treatment, all remaining mice were sacrificed and perfused. Gross pathology (liver and intestines) was noted and graded (0 to +3). Worm burdens were determined and the sex of the worms recorded. Following perfusions the liver and intestines were removed and examined for the presence of […] or dead worms. […] Drugs were administered orally in Emulphor EL.
C. Drug Treatment: Treatment consisted of a single oral dose. Each drug was give initially at two dose levels, 40 mg/kg and 125 mg/kg, SID×1.
D. Criteria Used to Evaluate Therapeutic Effectiveness:
Evaluation of activity was determined by examination of the animals at 23 to 28 days after treatment. The schistosomes remaining alive after treatment were counted in the perfusates of the hepatic portal system and in press preparation of the livers. In the same preparations, the relative numbers of dead and/or encapsulated (i.e., worms may or may not be dead) parasites and the relative degree of pathology were ascertained. The efficacy of each treatment was that percentage of the control infection represented by the difference between numbers of parasites recovered from control (H2 O+vehicle) and treated animals. Thus, % efficacy is: [formula]

[4] = test system: Salmonella Typhimurium; experiment: bacterial mutagenicity (Ames/Salmonella), five strains together; assay type: cell-based; conditions: for bacterial mutagenicity: initial test
Protocol: as §1
Four phenylpiperazine derivatives were selected and specially purified samples were prepared for testing as bacterial mutagens. The tests were conducted with five strains (TA98, TA100, TA1535, TA1537, and TA1538) of Salmonella Typhimurium. The compounds were the base of cpd. A (Table 6a), cpd. 28 (Table 2), cpd. 49 (Table 3), and cpd. 8 (Table 1). Hycanthone was used as a positive control drug.

[5] = test system: Salmonella Typhimurium TA1537; experiment: bacterial mutagenicity, strain TA1537; assay type: cell-based; design: key: +: Positive Response; -: Negative Response; w+: Weak Positive Response
Protocol: as §1, §2

[6] = test system: Salmonella Typhimurium TA100; experiment: bacterial mutagenicity, strain TA100; assay type: cell-based; design: key: +: Positive Response; -: Negative Response; w+: Weak Positive Response
Protocol: as §1, §2

[7] = test system: Salmonella Typhimurium TA1538; experiment: bacterial mutagenicity, strain TA1538; assay type: cell-based; design: key: +: Positive Response; -: Negative Response; w+: Weak Positive Response
Protocol: as §1, §2

[8] = test system: S. mansoni; experiment: antischistosomal activity in Cebus apella monkeys treated orally; assay type: in vivo, S. mansoni (host: Cebus apella monkeys); conditions: four equal doses over two days, oral; for Total Normal Worms at Necropsy: two values given, not assigned to the doses

## O=C(CN1CCN(c2ccc(CO)c(Cl)c2)CC1)c1ccc(Cl)c(Cl)c1Cl [Cpd. 8, 2-[4-[3-Chloro-4-(hydroxymethyl)phenyl]-1-piperazinyl]-1-(2,3,4-trichlorophenyl)ethanone]
[1]; with metabolic activation
  Mutagenicity TA98: -
[1]; without metabolic activation
  Mutagenicity TA98: -
[2]
  Mutagenicity TA1535: -
[3]
  inhibition in vivo at 40 mg/kg: 84%
  inhibition in vivo at 50 mg/kg: 91%
  inhibition in vivo at 156 mg/kg: 96%
[4]; five strains
  bacterial mutagenicity: mutagenic, but much less so than hycanthone
[5]; with metabolic activation
  Mutagenicity TA1537: w+
[5]; without metabolic activation
  Mutagenicity TA1537: -
[6]; with metabolic activation
  Mutagenicity TA100: +
[7]; with metabolic activation
  Mutagenicity TA1538: -
[7]; without metabolic activation
  Mutagenicity TA1538: -

## O=C(CCN1CCN(c2ccc(CO)c(Cl)c2)CC1)c1ccc(Cl)cc1 [Cpd. 28, 3-[4-[3-Chloro-4-(hydroxymethyl)phenyl]-1-piperazinyl]-1-(4-chlorophenyl)-1-propanone]
[1]; with metabolic activation
  Mutagenicity TA98: -
[1]; without metabolic activation
  Mutagenicity TA98: -
[2]
  Mutagenicity TA1535: -
[3]
  inhibition in vivo at 20 mg/kg: 66%
  inhibition in vivo at 40 mg/kg: 88%
  inhibition in vivo at 50 mg/kg: 98%
  inhibition in vivo at 156 mg/kg: 99%
[4]; five strains
  bacterial mutagenicity: mutagenic, but much less so than hycanthone
[5]; with metabolic activation
  Mutagenicity TA1537: -
[5]; without metabolic activation
  Mutagenicity TA1537: w+
[6]; with metabolic activation
  Mutagenicity TA100: +
[7]; with metabolic activation
  Mutagenicity TA1538: +
[7]; without metabolic activation
  Mutagenicity TA1538: w+

## O=C(CN1CCN(c2ccc(CO)c(Cl)c2)CC1)c1cc2ccccc2o1 [Cpd. 49, 2-[4-[3-Chloro-4-(hydroxymethyl)phenyl]-1-piperazinyl]-1-(2-benzofuranyl)-ethanone]
[1]; initial test, TA98 with microsomal activation
  bacterial mutagenicity: weakly mutagenic
[1]; second test, TA98, microsomal activation, additional concentrations 10-60 micrograms/ml
  bacterial mutagenicity: did not confirm this mutagenicity
[1]; with metabolic activation
  Mutagenicity TA98: +
[1]; without metabolic activation
  Mutagenicity TA98: -
[2]
  Mutagenicity TA1535: -
[3]
  inhibition in vivo at 20 mg/kg: 33%
  inhibition in vivo at 125 mg/kg: 97%
[4]; Ames/Salmonella assay, overall conclusion
  bacterial mutagenicity, conclusion: nonmutagenic
[4]; other four strains (not TA98)
  bacterial mutagenicity: nonmutagenic
[5]; with metabolic activation
  Mutagenicity TA1537: -
[5]; without metabolic activation
  Mutagenicity TA1537: -
[6]; with metabolic activation
  Mutagenicity TA100: -
[7]; with metabolic activation
  Mutagenicity TA1538: -
[7]; without metabolic activation
  Mutagenicity TA1538: -

## CCN(CC)CCNc1ccc(CO)c2sc3ccccc3c(=O)c12 [Hycanthone, reference compound]
[1]; with metabolic activation
  Mutagenicity TA98: +
[1]; without metabolic activation
  Mutagenicity TA98: +
[2]
  Mutagenicity TA1535: -
[5]; with metabolic activation
  Mutagenicity TA1537: +
[5]; without metabolic activation
  Mutagenicity TA1537: +
[6]; with metabolic activation
  Mutagenicity TA100: +
[6]; without metabolic activation
  Mutagenicity TA100: +
[7]; with metabolic activation
  Mutagenicity TA1538: +
[7]; without metabolic activation
  Mutagenicity TA1538: +

## O=C(CN1CCN(c2ccc(CO)c(Cl)c2)CC1)c1cccs1 [compound 45]
[3]
  inhibition in vivo at 40 mg/kg: 10%
  inhibition in vivo at 125 mg/kg: 68%

## O=C(CN1CCN(c2ccc(CO)c(Cl)c2)CC1)c1ccco1 [compound 46]
[3]
  inhibition in vivo at 50 mg/kg: 31%
  inhibition in vivo at 156 mg/kg: 83%

## O=C(CN1CCN(c2ccc(CO)c(Cl)c2)CC1)c1ccc(Br)s1 [compound 47]
[3]
  inhibition in vivo at 40 mg/kg: 35%
  inhibition in vivo at 125 mg/kg: 93%

## O=C(CN1CCN(c2ccc(CO)c(Cl)c2)CC1)c1ccc(I)s1 [compound 48]
[3]
  inhibition in vivo at 40 mg/kg: -20%
  inhibition in vivo at 125 mg/kg: 30%

## Cc1ccsc1C(=O)CN1CCN(c2ccc(CO)c(Cl)c2)CC1 [compound 50]
[3]
  inhibition in vivo at 40 mg/kg: -12%
  inhibition in vivo at 125 mg/kg: 28%

## O=C(CN1CCN(c2ccc(CO)c(Cl)c2)CC1)c1ccsc1 [compound 51]
[3]
  inhibition in vivo at 40 mg/kg: -6%
  inhibition in vivo at 125 mg/kg: 83%

## Cc1csc(C(=O)CN2CCN(c3ccc(CO)c(Cl)c3)CC2)c1 [compound 52]
[3]
  inhibition in vivo at 40 mg/kg: 25%
  inhibition in vivo at 125 mg/kg: 69%

## O=C(CN1CCN(c2ccc(CO)c(Cl)c2)CC1)c1cc(Cl)sc1Cl [compound 54]
[3]
  inhibition in vivo at 40 mg/kg: 69%
  inhibition in vivo at 125 mg/kg: 83%

## O=C(CN1CCN(c2ccc(CO)c(Cl)c2)CC1)c1ccc2c(c1)Sc1ccccc1S2 [compound 55]
[3]
  inhibition in vivo at 40 mg/kg: 54%
  inhibition in vivo at 125 mg/kg: 68%

## O=C(CN1CCN(c2ccc(CO)c(Cl)c2)CC1)c1ccc2sc3ccccc3c2c1 [compound 56]
[3]
  inhibition in vivo at 40 mg/kg: 51%
  inhibition in vivo at 125 mg/kg: 77%

## Cc1ccc(C(=O)CCCN2CCN(c3ccc(CO)c(Cl)c3)CC2)cc1C [compound 60]
[3]
  inhibition in vivo at 40 mg/kg: 67%
  inhibition in vivo at 125 mg/kg: 88%

## O=C(CCN1CCN(c2ccc(CO)c(Cl)c2)CC1)c1ccc(Cl)cc1 [drawing 32]
[8]; 100 mg/kg
  % Reduction Live Worm Burden at Necropsy: 93% and 87%
  Total Live Worms at Necropsy: 15 and 27
[8]; 200 mg/kg
  % Reduction Live Worm Burden at Necropsy: 100% and 96%
[8]; 400 mg/kg
  % Reduction Live Worm Burden at Necropsy: 97% and 95%
  Total Live Worms at Necropsy: 6 and 11
[8]
  Total Normal Worms at Necropsy: 0
[8]; two values printed for six animals (400, 200, 100 mg/kg), not assigned
  Fecal Egg Count: 0

## O=C(CN1CCN(c2ccc(CO)c(Cl)c2)CC1)c1ccc(Cl)c(Cl)c1Cl [drawing 33]
[8]; 200 mg/kg
  % Reduction Live Worm Burden at Necropsy: 85% and 83%
  Fecal Egg Count: 0
[8]; 400 mg/kg
  % Reduction Live Worm Burden at Necropsy: 99% and 98%
  Fecal Egg Count: 0
[8]
  Total Normal Worms at Necropsy: 0
